Results: patent publication US20080045506A1 (GLAXO GROUP LIMITED, priority 2004, published 2008)
Where a name gives a salt, the structure may show the parent alone.

Target: T1, histamine H3 receptor (Homo sapiens, UniProt Q9Y5N1)
T1 construct: expressed in transfected cells; host or cells: CHO K1 cells (pSwitch/pGene GeneSwitch system, mifepristone-induced), clone 3H3; membranes
Test: Histamine H3 functional antagonist assay (method B)
Assay type: biochemical
Settings: [35S]-GTPγS SPA, membrane prepared from cultured H3 cells, histamine at EC80, averages of a number of experiments, read-out: functional pKi (fpKi), antagonism (converted)
Description: A membrane preparation containing histamine H3 receptors may be prepared in accordance with the following procedures:
(i) Generation of Histamine H3 Cell Line
DNA encoding the human histamine H3 gene (Huvar, A. et al. (1999) Mol. Pharmacol. 55(6), 1101-1107) was cloned into a holding vector, pcDNA3.1 TOPO (InVitrogen) and its cDNA was isolated from this vector by restriction digestion of plasmid DNA with the enzymes BamH1 and Not-1 and ligated into the inducible expression vector pGene (InVitrogen) digested with the same enzymes. The GeneSwitch™ system (a system where in transgene expression is switched off in the absence of an inducer and switched on in the presence of an inducer) was performed as described in U.S. Pat. Nos. 5,364,791; 5,874,534; and 5,935,934. Ligated DNA was transformed into competent DH5α E. coli host bacterial cells and plated onto Luria Broth (LB) agar containing Zeocin™ (an antibiotic which allows the selection of cells expressing the sh ble gene which is present on pGene and pSwitch) at 50 μg ml^−1. Colonies containing the re-ligated plasmid were identified by restriction analysis. DNA for transfection into mammalian cells was prepared from 250 ml cultures of the host bacterium containing the pGeneH3 plasmid and isolated using a DNA preparation kit (Qiagen Midi-Prep) as per manufacturers guidelines (Qiagen).
CHO K1 cells previously transfected with the pSwitch regulatory plasmid (InVitrogen) were seeded at 2×10e6 cells per T75 flask in Complete Medium, containing Hams F12 (GIBCOBRL, Life Technologies) medium supplemented with 10% v/v dialysed foetal bovine serum, L-glutamine, and hygromycin (100 μg ml^−1), 24 hours prior to use. Plasmid DNA was transfected into the cells using Lipofectamine plus according to the manufacturers guidelines (InVitrogen). 48 hours post transfection cells were placed into complete medium supplemented with 500 μg ml^−1 Zeocin™.
10-14 days post selection 10 nM Mifepristone (InVitrogen), was added to the culture medium to induce the expression of the receptor. 18 hours post induction cells were detached from the flask using ethylenediamine tetra-acetic acid (EDTA; 1:5000; InVitrogen), following several washes with phosphate buffered saline pH 7.4 and resuspended in Sorting Medium containing Minimum Essential Medium (MEM), without phenol red, and supplemented with Earles salts and 3% Foetal Clone II (Hyclone). Approximately 1×10e7 cells were examined for receptor expression by staining with a rabbit polyclonal antibody, 4a, raised against the N-terminal domain of the histamine H3 receptor, incubated on ice for 60 minutes, followed by two washes in sorting medium. Receptor bound antibody was detected by incubation of the cells for 60 minutes on ice with a goat anti rabbit antibody, conjugated with Alexa 488 fluorescence marker (Molecular Probes). Following two further washes with Sorting Medium, cells were filtered through a 50 μm Filcon™ (BD Biosciences) and then analysed on a FACS Vantage SE Flow Cytometer fitted with an Automatic Cell Deposition Unit. Control cells were non-induced cells treated in a similar manner. Positively stained cells were sorted as single cells into 96-well plates, containing Complete Medium containing 500 μg ml^−1 Zeocin™ and allowed to expand before reanalysis for receptor expression via antibody and ligand binding studies. One clone, 3H3, was selected for membrane preparation.
(ii) Membrane Preparation from Cultured Cells
All steps of the protocol are carried out at 4° C. and with pre-cooled reagents. The cell pellet is resuspended in 10 volumes of homogenisation buffer (50 mM N-2-hydroxyethylpiperazine-N′-2-ethanesulfonic acid (HEPES), 1 mM ethylenediamine tetra-acetic acid (EDTA), pH 7.4 with KOH, supplemented with 10e-6M leupeptin (acetyl-leucyl-leucyl-arginal; Sigma L2884), 25 μg/ml bacitracin (Sigma B0125), 1 mM phenylmethylsulfonyl fluoride (PMSF) and 2×10e-6M pepstain A (Sigma)). […]

T1 sequence (Q9Y5N1 whole entry): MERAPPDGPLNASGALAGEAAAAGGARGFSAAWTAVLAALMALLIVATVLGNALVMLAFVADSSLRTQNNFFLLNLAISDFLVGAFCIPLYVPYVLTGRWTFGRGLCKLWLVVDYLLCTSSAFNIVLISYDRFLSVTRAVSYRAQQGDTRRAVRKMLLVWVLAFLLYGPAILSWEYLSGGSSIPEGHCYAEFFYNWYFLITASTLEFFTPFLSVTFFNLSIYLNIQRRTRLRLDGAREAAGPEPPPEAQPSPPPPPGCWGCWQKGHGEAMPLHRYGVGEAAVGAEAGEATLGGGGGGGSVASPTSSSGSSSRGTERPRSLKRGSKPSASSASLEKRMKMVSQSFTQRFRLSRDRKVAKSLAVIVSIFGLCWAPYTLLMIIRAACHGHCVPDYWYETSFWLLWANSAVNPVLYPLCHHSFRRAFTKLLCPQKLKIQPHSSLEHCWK

Ki, < 10000 pM:
Cc1ccc2cc(N3CCC(C(=O)N4CCCN(C5CCC5)CC4)C3)ccc2n1 (racemic) [Example E19, (R,S)-6-{3-[(4-Cyclobutylhexahydro-1H-1,4-diazepin-1-yl)carbonyl]-1-pyrrolidinyl}-2-methylquinoline]
Cc1ccc2cc(N3CC[C@@H](C(=O)N4CCCN(C5CCC5)CC4)C3)ccc2n1 (single isomer, unassigned) [Example E19A, hydrochloride]
Cc1noc(-c2ccc(N3CC[C@@H](C(=O)N4CCCN(C5CCC5)CC4)C3)c(F)c2)n1 (single isomer, unassigned) [Example E20A, hydrochloride]
CC(=O)c1ccc(N2CC[C@@H](C(=O)N3CCCN(C4CCC4)CC3)C2)cc1 (single isomer, unassigned) [Example E21A, hydrochloride]

Ki, ≤ 316 pM:
Cc1noc(-c2ccc(N3CCC(C(=O)N4CCCN(C5CCC5)CC4)C3)cc2)n1 (racemic) [Example E18, (R,S)-1-Cyclobutyl-4-({1-[4-(3-methyl-1,2,4-oxadiazol-5-yl)phenyl]-3-pyrrolidinyl}carbonyl)hexahydro-1H-1,4-diazepine]
Cc1noc(-c2ccc(N3CCC(C(=O)N4CCCN(C5CCC5)CC4)C3)c(F)c2)n1 (racemic) [Example E20, (R,S)-1-Cyclobutyl-4-({1-[2-fluoro-4-(3-methyl-1,2,4-oxadiazol-5-yl)phenyl]-3-pyrrolidinyl}carbonyl)hexahydro-1H-1,4-diazepine]
CC(=O)c1ccc(N2CCC(C(=O)N3CCCN(C4CCC4)CC3)C2)cc1 (racemic) [Example E21, (R,S)-1-(4-{3-[(4-Cyclobutylhexahydro-1H-1,4-diazepin-1-yl)carbonyl]-1-pyrrolidinyl}phenyl)ethanone]
Cc1noc(-c2ccc(N3CC[C@@H](C(=O)N4CCCN(C5CCC5)CC4)C3)cc2)n1 (single isomer, unassigned) [Example E18A, hydrochloride]
Cc1noc(-c2ccc(N3CC[C@H](C(=O)N4CCCN(C5CCC5)CC4)C3)cc2)n1 (single isomer, unassigned) [Example E18B, hydrochloride]
Cc1ccc2cc(N3CC[C@H](C(=O)N4CCCN(C5CCC5)CC4)C3)ccc2n1 (single isomer, unassigned) [Example E19B, hydrochloride]
Cc1noc(-c2ccc(N3CC[C@H](C(=O)N4CCCN(C5CCC5)CC4)C3)c(F)c2)n1 (single isomer, unassigned) [Example E20B, hydrochloride]
CC(=O)c1ccc(N2CC[C@H](C(=O)N3CCCN(C4CCC4)CC3)C2)cc1 (single isomer, unassigned) [Example E21B, hydrochloride]
CC(=O)c1ccc(N2CC[C@H](C(=O)N3CCN(C(C)C)CC3)C2)cc1 [Example E2, 1-[4-((3S)-3-{[4-(1-Methylethyl)-1-piperazinyl]carbonyl}-1-pyrrolidinyl)phenyl]ethanone]
Cc1noc(-c2ccc(N3CC[C@H](C(=O)N4CCN(C(C)C)CC4)C3)cc2)n1 [Example E3, 1-(1-Methylethyl)-4-({(3S)-1-[4-(3-methyl-1,2,4-oxadiazol-5-yl)phenyl]-3-pyrrolidinyl}carbonyl)piperazine]
CC(=O)c1ccc(N2CC[C@H](C(=O)N3CCN(C(C)C)[C@@H](C)C3)C2)cc1 [Example E5, 1-[4-((3S)-3-{[(3S)-3-Methyl-4-(1-methylethyl)-1-piperazinyl]carbonyl}-1-pyrrolidinyl)phenyl]ethanone]
Cc1noc(-c2ccc(N3CC[C@H](C(=O)N4CCN(C(C)C)[C@@H](C)C4)C3)cc2)n1 [Example E6, (2S)-2-Methyl-1-(1-methylethyl)-4-({(3S)-1-[4-(3-methyl-1,2,4-oxadiazol-5-yl)phenyl]-3-pyrrolidinyl}carbonyl)piperazine]
